Measured values taken from US20150132852A1, “TISSUE CULTURING METHOD, CULTURING METHOD OF FERNS AND EXPLANT OBTAINED THEREFROM” (Chunghwa Picture Tubes, Ltd., priority 2013, published 2015).

Legend:
[1] = tested on: callus rounds of Davallia mariesii; test: Sporophyte regeneration from callus rounds under various cytokinins; type: cell-based
Method: Finally, the callus round is further cultured in a culture fluid at 23° C. to 25° C. and 11 to 14 μmol^−2 s^−1 (Light:Dark=16:8) for between to 150 days (preferably for 120 days), and are preferably sub-cultured every fifteen days till the callus round regenerates a sporophyte. In this situation, the callus round will keep on growing, and can reach 0.57 cm to 0.7 cm in diameter after approximately 60 days, and reach 1.2 cm to 1.34 cm in 120 days. In the present example, the culture fluid comprises ½ MS medium. In other examples, the culture fluid can further comprise 1 to 5 mg/l N6-(delta 2-isopentenyl)-adenine (2ip), 6-benzylaminopurine (BA) and kinetin, particularly for 1 mg/l N6-(delta 2-isopentenyl)-adenine (2ip). […] Additionally, a regenerated sporophyte of the present example can be further transplanted to a solid medium till it has more than 3 cm length (preferably for 3.5 cm length) for growing into a plant, wherein the plant has a survival rate of up to 90.3%. In the present experiment, callus rounds, being 0.14±0.03 g and 0.21±0.02, are prepared wherein every four are cultured in a culture fluid to induce the callus rounds to regenerate sporophytes, wherein the medium comprises ½ MS medium (including a small amount of sucrose, namely 20 g/l sucrose) and various cytokinins in various amounts as listed in TABLE 3. After 60 days and 120 days of culturing, respectively, sporophytes obtained in each medium are collected and analyzed to record the size of the callus rounds and the number and length of sporophytes regenerated from the callus rounds.

[2] = tested on: chopped prothallium of Davallia mariesii; test: Calluses induction from chopped prothallium under various growth regulators; type: cell-based; settings: 60 days
Method: The prothallium is chopped up into small pieces being 0.1 cm to 0.2 cm in width and cultured (suspending culture) in a medium, wherein the medium comprises ½ MS medium (Murashige and Skoog, 1962) having a composition as shown in TABLE 1. In other examples, the medium can also comprise Knop medium (Murashige and Skoog, 1962) or knudson medium (Knudson, 1946). Precisely, 0.1 g chopped prothallium are cultured in 10 ml ½ MS medium, which are shake cultured at 85 rpm for forty to eighty days, and preferably at 23° C. to 25° C. and 11 to 14 μmol^−2 s^−1 (Light:Dark=16:8) for sixty days, and are sub-cultured every thirty days. In the present experiment, a plurality of 50 ml flasks are prepared, each having 0.1 g chopped prothallium of Davallia mariesii (in 0.1 cm to 0.2 cm pieces) being cultured in a medium therein, wherein the medium comprises 10 ml ½ MS medium (including a small amount of sucrose, namely 20 g/l sucrose) and various growth regulators in various amounts as listed in TABLE 2. After 60 days of culturing, calluses obtained in each flask are collected and analyzed respectively, to record the size, weight and number of each callus.

[3] = 1 mg/l in culture fluid, 120 days
[4] = single growth regulator 1 mg/L in 1/2 MS medium
[5] = single growth regulator 2 mg/L in 1/2 MS medium
[6] = single growth regulator 5 mg/L in 1/2 MS medium

| SMILES | Diameter (cm) of callus round and sporophyte thereon ([1]; cytokinin 1 mg/L, 60 days) | Induction Rate (%) of sporophyte ([1]; cytokinin 1 mg/L, 60 days) | Proliferation Rate (%) of callus round ([1]; cytokinin 1 mg/L, 60 days) | Diameter (cm) of callus round and sporophyte thereon ([1]; cytokinin 1 mg/L, 120 days) | Induction Rate (%) of sporophyte ([1]; cytokinin 1 mg/L, 120 days) | Proliferation Rate (%) of callus round ([1]; cytokinin 1 mg/L, 120 days) | Diameter (cm) of callus round and sporophyte thereon ([1]; cytokinin 2 mg/L, 60 days) | Induction Rate (%) of sporophyte ([1]; cytokinin 2 mg/L, 60 days) | Proliferation Rate (%) of callus round ([1]; cytokinin 2 mg/L, 60 days) | Diameter (cm) of callus round and sporophyte thereon ([1]; cytokinin 2 mg/L, 120 days) | Induction Rate (%) of sporophyte ([1]; cytokinin 2 mg/L, 120 days) | Proliferation Rate (%) of callus round ([1]; cytokinin 2 mg/L, 120 days) | Diameter (cm) of callus round and sporophyte thereon ([1]; cytokinin 5 mg/L, 60 days) | Induction Rate (%) of sporophyte ([1]; cytokinin 5 mg/L, 60 days) | Proliferation Rate (%) of callus round ([1]; cytokinin 5 mg/L, 60 days) | Diameter (cm) of callus round and sporophyte thereon ([1]; cytokinin 5 mg/L, 120 days) | Induction Rate (%) of sporophyte ([1]; cytokinin 5 mg/L, 120 days) | Proliferation Rate (%) of callus round ([1]; cytokinin 5 mg/L, 120 days) | Calluses (numbers), callus round in 0.1-0.2 cm [2, 4] | Proliferation Rate (%) [2, 4] | also measured |
| --- | --- | --- | --- | --- | --- | --- | --- | --- | --- | --- | --- | --- | --- | --- | --- | --- | --- | --- | --- | --- | --- |
| CC(C)=CCNc1ncnc2nc[nH]c12 [2ip, N6-(delta 2-isopentenyl)-adenine] | 0.57 ± 0.04 cm | 100.0% | 208.9 ± 24.1% | 1.34 ± 0.22 cm | 100.0% | 537.5 ± 161.2% | 0.60 ± 0.03 cm | 100.0% | 156.0 ± 22.2% | 1.46 ± 0.21 cm | 100.0% | 386.3 ± 99.7% | 0.38 ± 0.03 cm | 0.0% | 64.9 ± 18.3% | 0.91 ± 0.24 cm | 8.3% | 208.3 ± 67.9% | – | – | induction rate of sporophytes [1, 3]: 100%; proliferation rate of the callus [1, 3]: 537±161.2% |
| c1ccc(CNc2ncnc3nc[nH]c23)cc1 [BA, 6-benzylaminopurine] | 0.29 ± 0.05 cm | 0.0% | 40.5 ± 16.6% | 0.97 ± 0.15 cm | 0.0% | 191.1 ± 71.5% | 0.42 ± 0.06 cm | 0.0% | 89.9 ± 22.9% | 0.77 ± 0.13 cm | 0.0% | 300.0 ± 38.6% | 0.41 ± 0.06 cm | 0.0% | 41.1 ± 16.3% | 0.88 ± 0.16 cm | 0.0% | 216.7 ± 38.7% | – | – | – |
| c1coc(CNc2ncnc3nc[nH]c23)c1 [Kinetin, 6-Furfurylamino-purine] | 0.31 ± 0.06 cm | 0.0% | 82.1 ± 24.3% | 0.63 ± 0.09 cm | 16.7% | 231.0 ± 83.5% | 0.23 ± 0.05 cm | 0.0% | 47.0 ± 12.2% | 1.02 ± 0.06 cm | 0.0% | 182.1 ± 88.4% | 0.32 ± 0.07 cm | 0.0% | 72.6 ± 17.5% | 1.13 ± 0.10 cm | 0.0% | 217.9 ± 70.9% | 73.67 ± 14.38 numbers | 153.3 ± 24.9% | Calluses (numbers), callus round in 0.1-0.2 cm [2, 5]: 21.00 ± 3.74 numbers; Proliferation Rate (%) [2, 5]: 66.6 ± 17.0%; Calluses (numbers), callus round in 0.1-0.2 cm [2, 6]: 6.00 ± 5.35 numbers; Proliferation Rate (%) [2, 6]: 23.3 ± 4.7% |
| O=C(O)Cc1cccc2ccccc12 [NAA, 1-Naphthaleneacetic acid] | – | – | – | – | – | – | – | – | – | – | – | – | – | – | – | – | – | – | 54.33 ± 9.46 numbers | 96.6 ± 17.0% | Calluses (numbers), callus round in 0.1-0.2 cm [2, 5]: 23.67 ± 1.25 numbers; Proliferation Rate (%) [2, 5]: 53.3 ± 20.6%; Calluses (numbers), callus round in 0.1-0.2 cm [2, 6]: 0.00 ± 0.00 numbers; Proliferation Rate (%) [2, 6]: 23.3 ± 4.7% |
